{
  "source": "patent EP2876156A1",
  "about": "(COMMISSARIAT A L'ENERGIE ATOMIQUE ET AUX ENERGIES …, priority 2013, dated 2015)",
  "key": {"ENZ6 (SEQ ID NO:10)": {"biological_target": "T1, ENZ6 (SEQ ID NO:10) (Flavobacterium sp., UniProt J3BZS6)", "T1 construct": "His6 (hexahistidine, inserted after the initial methionine) (N); made in house; host or cells: E. coli BL21(DE3) plysE", "T1 sequence (J3BZS6 whole entry)": "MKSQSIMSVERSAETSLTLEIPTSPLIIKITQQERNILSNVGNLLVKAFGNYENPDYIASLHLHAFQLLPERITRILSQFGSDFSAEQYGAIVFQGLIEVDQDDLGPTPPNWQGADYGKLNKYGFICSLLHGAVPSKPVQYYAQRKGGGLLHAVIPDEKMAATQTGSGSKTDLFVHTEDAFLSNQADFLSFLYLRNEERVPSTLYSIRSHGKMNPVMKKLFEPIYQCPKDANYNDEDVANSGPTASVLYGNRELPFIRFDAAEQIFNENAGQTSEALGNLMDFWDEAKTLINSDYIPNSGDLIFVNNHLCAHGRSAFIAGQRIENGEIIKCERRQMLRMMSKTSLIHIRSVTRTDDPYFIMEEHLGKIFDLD", "assay": "Hydroxylation capability, HPLC analysis of reaction media after derivatization", "assay_type": "biochemical", "procedure": "(§1) Enzymes (0.08 mg/mL) were screened against substrates (molar ratio α-ketoglutarate/substrate 15/10) in Hepes buffer 50 mM pH 7,5, with Mohr's salt at 1mM and without sodium ascorbate, at room temperature for three hours. The potential conversions of the substrates were determined by HPLC after Fmoc-Cl derivatization as section III here above.\n(§2) The hydroxylation capability of two other enzymes, namely ENZ6 (SEQ ID NO:10) and ENZ5 (SEQ ID NO:9) were also assessed. The amino sequence of ENZ6 has 79% of amino acid identity with SEQ ID NO:2 of ENZ2 while the amino sequence of ENZ5 has 72% of amino acid identity with SEQ ID NO:3 of ENZ3. […] As shown in part VI, ENZ6 and ENZ5 provide (4R)-hydroxy-L-lysine from L-lysine similarly to ENZ2 and ENZ3. Thus ENZ6 and ENZ5 are likely to have the same substrate selectivity and provide similar products as ENZ2 and ENZ3."}, "ENZ5 (SEQ ID NO:9)": {"biological_target": "T2, ENZ5 (SEQ ID NO:9) (Niastella koreensis, UniProt G8T8D0)", "T2 construct": "His6 (hexahistidine, inserted after the initial methionine) (N); made in house; host or cells: E. coli BL21(DE3) plysE", "T2 sequence (G8T8D0 1-371)": "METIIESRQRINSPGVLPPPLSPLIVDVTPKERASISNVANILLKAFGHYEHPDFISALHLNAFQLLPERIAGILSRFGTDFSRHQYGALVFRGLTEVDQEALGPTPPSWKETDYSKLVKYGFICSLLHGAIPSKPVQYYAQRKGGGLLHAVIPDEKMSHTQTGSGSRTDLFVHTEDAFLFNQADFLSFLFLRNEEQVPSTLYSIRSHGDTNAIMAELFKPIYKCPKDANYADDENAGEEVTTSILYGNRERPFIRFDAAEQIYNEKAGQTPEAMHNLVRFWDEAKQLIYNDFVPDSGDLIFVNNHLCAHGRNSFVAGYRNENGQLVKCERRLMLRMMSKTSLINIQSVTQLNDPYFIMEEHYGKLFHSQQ", "assay": "Hydroxylation capability, HPLC analysis of reaction media after derivatization", "assay_type": "biochemical", "procedure": "as §1, §2"}, "[1]": {"test_system": "Decarboxyl (or Decarboxy2)", "assay": "Enzymatic hydroxylation followed by decarboxylation to hydroxylated diamino alkanes, conversion by HPLC (protocol A)", "assay_type": "biochemical, Flavobacterium johnsoniae; Chitinophaga pinensis", "settings": "L-lysine or L-ornithine hydroxylated (part V conditions), then PLP, DTT and Decarboxy1 (or Decarboxy2) added, 18h at 37 °C; HPLC after Fmoc-Cl derivatization", "procedure": "The conversions were determined by HPLC after Fmoc-Cl derivatization (protocol A). Atlantis T3 (3µm 4.5*150 mm) at 35°C with the gradient 50-86% eluent B (MeCN + 0.1% TFA) and eluent A (H2O + 0.1% TFA) in 20 min at 1 mL/min […].\nL-lysine was converted into (3S)-3-hydroxy-L-lysine by ENZ1 in conditions described in part V.\n30 µL pyridoxal 5'-phosphate (PLP) 10 mM, 3 µL dithiothreitol (DTT) 100 mM and Decarboxyl (or Decarboxy2) 50 µL 1.5 mg/mL were then added in the reaction medium. The mixture was stirred (1000 rpm) for 18h at 37 °C.\nLysine was converted into (4R)-4-hydroxy-L-lysine in conditions described in part V 30 µL PLP 10 mM, 3 µL DTT 100 mM and Decarboxyl(or Decarboxy2) 50 µL 1.5 mg/mL were then added in the reaction medium to perform decarboxylation. The mixture was stirred (1000 rpm) for 18h at 37 °C.\nThe mixture was stirred (1000 rpm) for 18h at 37 °C.\nLysine was converted into (3R,4R)-3,4-dihydroxy-L-lysine in conditions described in part V, by cascade reaction with ENZ1 (SEQ NO:1) and ENZ2 (SEQ NO:2).\nThe volume of the reaction medium was reduced to 180 µL using a speedvac. 26 µL PLP 10 mM, 2.6 µL DTT 100 mM and Decarboxyl (or Decarboxy2) 50 µL (lysat) were then added to perform decarboxylation. The mixture was stirred (1000 rpm) for 18h at 37 °C."}, "ENZ1 SEQ ID N°1": {"biological_target": "T3, ENZ1 SEQ ID N°1 (Catenulispora acidiphila, UniProt C7QJ42)", "T3 construct": "His6 (hexahistidine, inserted after the initial methionine) (N); made in house; host or cells: E. coli BL21(DE3) plysE", "T3 sequence (C7QJ42 1-358)": "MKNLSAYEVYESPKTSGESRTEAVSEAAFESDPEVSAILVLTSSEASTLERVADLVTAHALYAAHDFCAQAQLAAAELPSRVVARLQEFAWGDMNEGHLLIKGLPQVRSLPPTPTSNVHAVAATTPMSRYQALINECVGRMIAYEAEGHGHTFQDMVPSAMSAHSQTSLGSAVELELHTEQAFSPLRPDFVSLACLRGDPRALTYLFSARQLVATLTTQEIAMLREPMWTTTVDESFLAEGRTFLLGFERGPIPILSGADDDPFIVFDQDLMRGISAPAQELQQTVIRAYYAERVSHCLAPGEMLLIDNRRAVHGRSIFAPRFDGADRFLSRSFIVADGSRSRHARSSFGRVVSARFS", "assay": "Substrate selectivity screening of hydroxylase (conversion by HPLC after Fmoc-Cl derivatization)", "assay_type": "biochemical", "settings": "enzyme 0.08 mg/mL, molar ratio α-ketoglutarate/substrate 15/10, Hepes buffer 50 mM pH 7,5, Mohr's salt 1mM, without sodium ascorbate, room temperature, three hours", "procedure": "(§3) Enzymatic reaction medium (0.2 µmole, leq.), borate buffer 0,2M pH 7.7 (80 µL) and Fmoc-Cl solution7.5 mM in acetone (100 µL, 0.75 µmole, 3.75 eq) were hand shaked in a closed 1.50 mL eppendorf for one minute. The aqueous layer was extracted with petroleum ether (3*1 mL) to eliminate excess of Fmoc-Cl. 70 µL of the aqueous phase were withdrawn, diluted with 70 µL of acetonitrile and injected into the HPLC. For substrates with two amine functions, 100 µL of Fmoc-Cl solution 15 mM were used.\n(§4) Conditions for HPLC analysis: Atlantis® T3 (3 µm 4.5*150 mm) at 35°C with the gradient 50-86% eluent B (MeCN + 0.1% TFA) and eluent A (H2O + 0.1% TFA) in 20 min at 1 mL/min.\nas §1"}, "ENZ4 SEQ ID NO:4 [2]": {"biological_target": "T4, ENZ4 SEQ ID NO:4 (Catenulispora acidiphila, UniProt C7Q942)", "T4 construct": "His6 (hexahistidine, inserted after the initial methionine) (N); made in house; host or cells: E. coli BL21(DE3) plysE", "T4 sequence (C7Q942 1-343)": "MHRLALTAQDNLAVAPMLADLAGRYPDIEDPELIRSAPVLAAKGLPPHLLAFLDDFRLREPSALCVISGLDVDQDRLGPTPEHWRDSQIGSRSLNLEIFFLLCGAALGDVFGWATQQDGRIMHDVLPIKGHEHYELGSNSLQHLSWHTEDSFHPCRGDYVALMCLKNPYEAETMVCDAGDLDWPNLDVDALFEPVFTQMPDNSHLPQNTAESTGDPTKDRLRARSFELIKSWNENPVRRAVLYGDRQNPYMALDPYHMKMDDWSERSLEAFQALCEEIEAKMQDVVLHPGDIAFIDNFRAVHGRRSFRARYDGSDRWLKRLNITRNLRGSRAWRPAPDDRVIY", "assay": "Substrate selectivity screening of hydroxylase (conversion by HPLC after Fmoc-Cl derivatization)", "assay_type": "biochemical", "settings": "enzyme 0.08 mg/mL, molar ratio α-ketoglutarate/substrate 15/10, Hepes buffer 50 mM pH 7,5, Mohr's salt 1mM, without sodium ascorbate, room temperature, three hours", "procedure": "as §3, §4, §1"}, "ENZ4 SEQ ID NO:4 [3]": {"biological_target": "T4, ENZ4 SEQ ID NO:4", "assay": "Enzymatic hydroxylation of L-ornithine and L-arginine, 10 mL scale, conversion by HPLC", "assay_type": "biochemical", "settings": "ENZ4 0.595 mg/mL, without sodium ascorbate, room temperature, 18h; HPLC after FDAA derivatization (protocol B)", "procedure": "70 µL of the aqueous phase were withdrawn, diluted with 70 µL of acetonitrile and injected into the HPLC. […]\nas §4"}, "ENZ2 SEQ ID NO:2": {"biological_target": "T5, ENZ2 SEQ ID NO:2 (Flavobacterium johnsoniae, UniProt A5FF23)", "T5 construct": "His6 (hexahistidine, inserted after the initial methionine) (N); made in house; host or cells: E. coli BL21(DE3) plysE", "T5 sequence (A5FF23 1-370)": "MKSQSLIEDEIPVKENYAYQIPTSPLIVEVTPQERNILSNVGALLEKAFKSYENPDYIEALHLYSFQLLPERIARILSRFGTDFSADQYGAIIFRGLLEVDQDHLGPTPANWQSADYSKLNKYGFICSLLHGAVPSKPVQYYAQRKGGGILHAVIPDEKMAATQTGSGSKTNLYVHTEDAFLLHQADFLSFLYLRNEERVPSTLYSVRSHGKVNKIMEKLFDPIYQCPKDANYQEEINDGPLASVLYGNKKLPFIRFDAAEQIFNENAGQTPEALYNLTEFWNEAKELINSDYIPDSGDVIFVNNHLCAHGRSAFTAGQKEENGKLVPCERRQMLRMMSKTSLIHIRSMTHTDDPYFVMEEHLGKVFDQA", "assay_type": "biochemical", "settings": "enzyme 0.08 mg/mL, molar ratio α-ketoglutarate/substrate 15/10, Hepes buffer 50 mM pH 7,5, Mohr's salt 1mM, without sodium ascorbate, room temperature, three hours", "procedure": "as §3, §4, §1"}, "ENZ3 SEQ ID NO:3": {"biological_target": "T6, ENZ3 SEQ ID NO:3 (Chitinophaga pinensis, UniProt C7PLM6)", "T6 construct": "His6 (hexahistidine, inserted after the initial methionine) (N); made in house; host or cells: E. coli BL21(DE3) plysE", "T6 sequence (C7PLM6 1-382)": "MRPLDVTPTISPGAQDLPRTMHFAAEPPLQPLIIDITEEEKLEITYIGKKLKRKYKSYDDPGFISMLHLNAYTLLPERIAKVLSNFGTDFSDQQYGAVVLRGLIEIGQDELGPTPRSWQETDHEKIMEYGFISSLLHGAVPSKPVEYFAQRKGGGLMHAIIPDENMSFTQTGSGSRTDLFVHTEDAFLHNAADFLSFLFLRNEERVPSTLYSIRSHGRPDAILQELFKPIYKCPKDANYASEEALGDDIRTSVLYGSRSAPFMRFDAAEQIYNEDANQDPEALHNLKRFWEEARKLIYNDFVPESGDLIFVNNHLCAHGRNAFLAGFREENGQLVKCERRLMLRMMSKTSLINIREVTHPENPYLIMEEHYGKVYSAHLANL", "assay_type": "biochemical", "settings": "enzyme 0.08 mg/mL, molar ratio α-ketoglutarate/substrate 15/10, Hepes buffer 50 mM pH 7,5, Mohr's salt 1mM, without sodium ascorbate, room temperature, three hours", "procedure": "as §3, §4, §1"}},
  "data": [
    {"smiles": "NCCC[C@H](N)C(=O)O", "note": "[L-ornithine]", "values": [
      {"measurement": "hydroxylation capability of ENZ6", "setting": "ENZ6 (SEQ ID NO:10)", "result": "not able to convert"},
      {"measurement": "hydroxylation capability of ENZ5", "setting": "ENZ5 (SEQ ID NO:9)", "result": "not able to convert"}
    ]},
    {"smiles": "NCC[C@@H](O)[C@H](O)CN", "note": "[(2R,3R)-1,5-diamino-2,3-pentanediol]", "values": [
      {"measurement": "Conversion", "setting": "[1]", "result": "> 90", "unit": "%"}
    ]},
    {"smiles": "NCCC[C@H](O)CN", "note": "[(2S)-1,5-diamino-2-pentanol]", "values": [
      {"measurement": "Conversion", "setting": "[1]", "result": "> 95", "unit": "%"}
    ]},
    {"smiles": "N=C(N)NCCC[C@H](N)C(=O)O", "note": "[L-arginine]", "values": [
      {"measurement": "potential conversions of the substrates, ENZ1 SEQ ID N°1", "setting": "ENZ1 SEQ ID N°1", "result": "negative"},
      {"measurement": "potential conversions of the substrates, ENZ4 SEQ ID NO:4", "setting": "ENZ4 SEQ ID NO:4 [2]", "result": "positive"},
      {"measurement": "conversion of L-arginine into hydroxylated product", "setting": "ENZ4 SEQ ID NO:4 [3]", "result": 50, "unit": "%"},
      {"measurement": "potential conversions of the substrates, ENZ2 SEQ ID NO:2", "setting": "ENZ2 SEQ ID NO:2", "result": "negative"},
      {"measurement": "potential conversions of the substrates, ENZ3 SEQ ID NO:3", "setting": "ENZ3 SEQ ID NO:3", "result": "negative"}
    ]},
    {"smiles": "NCC[C@H](O)CN", "note": "[(2S)-1,4-diamino-2-butanol]", "values": [
      {"measurement": "Conversion", "setting": "[1]", "result": 50, "unit": "%"}
    ]},
    {"smiles": "NCCC(O)CCN", "note": "[1,5-diamino-3-pentanol]", "values": [
      {"measurement": "Conversion", "setting": "[1]", "result": 100, "unit": "%"}
    ]}
  ]
}
